PubChem BioAssay AID1259407 (Chemical Carcinogenesis Research Information System (CCRIS), 2018)
Calls of active or inactive are those of the source. The rule behind the calls is not given here.

System: CCRIS mutagenicity, Ames/micronucleus/aberration tests
Test: CCRIS mutagenicity studies
[1] = Test System: AMES SALMONELLA TYPHIMURIUM, Strain/Indicator: TA97, Metabolic Activation: HAMSTER, LIVER, S-9, AROCLOR 1254 (10%), Method: PREINCUBATION
[2] = Test System: AMES SALMONELLA TYPHIMURIUM, Strain/Indicator: TA97, Metabolic Activation: NONE, Method: PREINCUBATION
[3] = Test System: AMES SALMONELLA TYPHIMURIUM, Strain/Indicator: TA97, Metabolic Activation: RAT, LIVER, S-9, AROCLOR 1254 (10%), Method: PREINCUBATION
[4] = Test System: AMES SALMONELLA TYPHIMURIUM, Strain/Indicator: TA97, Metabolic Activation: RAT, LIVER, S-9, AROCLOR 1254, Method: PREINCUBATION
[5] = Test System: AMES SALMONELLA TYPHIMURIUM, Strain/Indicator: TA98, Metabolic Activation: HAMSTER, LIVER, S-9, AROCLOR 1254 (10%), Method: PREINCUBATION
[6] = Test System: AMES SALMONELLA TYPHIMURIUM, Strain/Indicator: TA98, Metabolic Activation: NONE, Method: PREINCUBATION
[7] = Test System: AMES SALMONELLA TYPHIMURIUM, Strain/Indicator: TA98, Metabolic Activation: RAT, LIVER, S-9, AROCLOR 1254 (10%), Method: PREINCUBATION
[8] = Test System: AMES SALMONELLA TYPHIMURIUM, Strain/Indicator: TA100, Metabolic Activation: HAMSTER, LIVER, S-9, AROCLOR 1254 (10%), Method: PREINCUBATION
[9] = Test System: AMES SALMONELLA TYPHIMURIUM, Strain/Indicator: TA100, Metabolic Activation: NONE, Method: PREINCUBATION
[10] = Test System: AMES SALMONELLA TYPHIMURIUM, Strain/Indicator: TA100, Metabolic Activation: RAT, LIVER, S-9, AROCLOR 1254 (10%), Method: PREINCUBATION
[11] = Test System: AMES SALMONELLA TYPHIMURIUM, Strain/Indicator: TA1535, Metabolic Activation: HAMSTER, LIVER, S-9, AROCLOR 1254 (10%), Method: PREINCUBATION
[12] = Test System: AMES SALMONELLA TYPHIMURIUM, Strain/Indicator: TA1535, Metabolic Activation: NONE, Method: PREINCUBATION
[13] = Test System: AMES SALMONELLA TYPHIMURIUM, Strain/Indicator: TA1535, Metabolic Activation: RAT, LIVER, S-9, AROCLOR 1254 (10%), Method: PREINCUBATION
[14] = Test System: AMES SALMONELLA TYPHIMURIUM, Strain/Indicator: TA100, Metabolic Activation: NONE, Method: STANDARD PLATE
[15] = Test System: AMES SALMONELLA TYPHIMURIUM, Strain/Indicator: TA1535, Metabolic Activation: NONE, Method: STANDARD PLATE

Measured: mutagenic call

Nc1ccc(NCCO)c([N+](=O)[O-])c1
active: [1] active; positive | Test System: AMES SALMONELLA TYPHIMURIUM, Strain/Indicator: TA97, Metabolic Activation: HAMSTER, LIVER, S-9, AROCLOR 1254, Method: PREINCUBATION active; positive | [2] active; positive | [3] active; positive | [4] active; positive | [5] active; positive | Test System: AMES SALMONELLA TYPHIMURIUM, Strain/Indicator: TA98, Metabolic Activation: HAMSTER, LIVER, S-9, AROCLOR 1254, Method: PREINCUBATION active; positive | [6] active; positive | [7] active; positive | Test System: AMES SALMONELLA TYPHIMURIUM, Strain/Indicator: TA98, Metabolic Activation: RAT, LIVER, S-9, AROCLOR 1254, Method: PREINCUBATION active; positive | [8] active; positive | Test System: AMES SALMONELLA TYPHIMURIUM, Strain/Indicator: TA100, Metabolic Activation: HAMSTER, LIVER, S-9, AROCLOR 1254, Method: PREINCUBATION active; positive | [9] active; positive | [10] active; positive | Test System: AMES SALMONELLA TYPHIMURIUM, Strain/Indicator: TA100, Metabolic Activation: RAT, LIVER, S-9, AROCLOR 1254, Method: PREINCUBATION active; positive
inactive: [11] inactive; negative | Test System: AMES SALMONELLA TYPHIMURIUM, Strain/Indicator: TA1535, Metabolic Activation: HAMSTER, LIVER, S-9, AROCLOR 1254, Method: PREINCUBATION inactive; negative | [12] inactive; negative | [13] inactive; negative | Test System: AMES SALMONELLA TYPHIMURIUM, Strain/Indicator: TA1535, Metabolic Activation: RAT, LIVER, S-9, AROCLOR 1254, Method: PREINCUBATION inactive; negative

COc1cc2c(cc1O)CC1c3c(cc(OC)c(O)c3-2)CC[N+]1(C)C (stereo not given)
inactive: Test System: AMES SALMONELLA TYPHIMURIUM, Strain/Indicator: TA100, Metabolic Activation: RAT, LIVER, S-9, PHENOBARBITAL AND BETA-NAPHTHOFLAVONE, Method: PREINCUBATION inactive; negative

C/C=C1/C[C@@H](C)[C@](C)(OC(C)=O)C(=O)OC/C2=C/CN(C)CC[C@@H](OC1=O)C2=O
active: Test System: UDS RAT HEPATOCYTES, Strain/Indicator: THY INCORP, Metabolic Activation: NONE, Method: AUTORADIOGRAPHY active; positive

OCC(Cl)(Cl)Cl
inactive: Test System: AMES SALMONELLA TYPHIMURIUM, Strain/Indicator: TA100, Metabolic Activation: NONE, Method: BAG VAPORIZATION inactive; negative | Test System: AMES SALMONELLA TYPHIMURIUM, Strain/Indicator: TA100, Metabolic Activation: RAT, LIVER, S-9, AROCLOR 1254, Method: BAG VAPORIZATION inactive; negative

Cc1cccc2c1cc(C)c1c3c(ccc12)C(O)C(O)C1OC31 (stereo not given)
active: [9] active; positive | [14] active; positive

CCOP(=O)=O.CCOP(=O)=O.CCOP(=O)=O.[Al+3]
active: End Point: IN VIVO MICRONUCLEUS, Test System: BONE MARROW POLYCHROMATIC ERYTHROCYTES, Species: MOUSE, Strain/Sex: SWISS/MALE, FEMALE, Route: IP 2X IN AQUEOUS SUSPENSION WITHIN 24 HR active; positive

[N-]=[N+]=CC(=O)NCC(=O)NN
active: [15] active; positive | Test System: UDS RODENT CELLS, Strain/Indicator: THY INCORP (NON-S-PHASE), Metabolic Activation: NONE, Method: AUTORADIOGRAPHY active; positive

CCN(CC)c1cccc(O)c1
active: [1] active; positive | [3] active; positive | [5] active; positive | [7] active; positive | [8] active; positive
inactive: [2] inactive; negative | [6] inactive; negative | [9] inactive; negative | [10] inactive; negative | [11] inactive; negative | [12] inactive; negative | [13] inactive; negative

O=[N+]([O-])c1cccc2nscc12
inactive: Test System: AMES SALMONELLA TYPHIMURIUM, Strain/Indicator: TA1535, Metabolic Activation: S-9, Method: STANDARD PLATE inactive; negative | Test System: AMES SALMONELLA TYPHIMURIUM, Strain/Indicator: TA1537, Metabolic Activation: S-9, Method: STANDARD PLATE inactive; negative
active: Test System: AMES SALMONELLA TYPHIMURIUM, Strain/Indicator: TA98, Metabolic Activation: NONE, Method: STANDARD PLATE active; positive | Test System: AMES SALMONELLA TYPHIMURIUM, Strain/Indicator: TA98, Metabolic Activation: S-9, Method: STANDARD PLATE active; positive | [14] active; positive | Test System: AMES SALMONELLA TYPHIMURIUM, Strain/Indicator: TA100, Metabolic Activation: S-9, Method: STANDARD PLATE (TEST MATERIAL SOLVENT:DMSO) active; positive | [15] active; positive | Test System: AMES SALMONELLA TYPHIMURIUM, Strain/Indicator: TA1537, Metabolic Activation: NONE, Method: STANDARD PLATE active; positive

CCCCCC
inactive: [2] inactive; negative | [4] inactive; negative | [5] inactive; negative | [6] inactive; negative | [7] inactive; negative | [8] inactive; negative | [9] inactive; negative | [10] inactive; negative | Test System: AMES SALMONELLA TYPHIMURIUM, Strain/Indicator: TA102, Metabolic Activation: NONE, Method: PREINCUBATION inactive; negative | Test System: AMES SALMONELLA TYPHIMURIUM, Strain/Indicator: TA102, Metabolic Activation: RAT, LIVER, S-9, AROCLOR 1254, Method: PREINCUBATION inactive; negative | [11] inactive; negative | [12] inactive; negative | [13] inactive; negative | Test System: AMES SALMONELLA TYPHIMURIUM, Strain/Indicator: TA1537, Metabolic Activation: HAMSTER, LIVER, S-9, AROCLOR 1254 (10%), Method: PREINCUBATION inactive; negative | Test System: AMES SALMONELLA TYPHIMURIUM, Strain/Indicator: TA1537, Metabolic Activation: NONE, Method: PREINCUBATION inactive; negative | Test System: AMES SALMONELLA TYPHIMURIUM, Strain/Indicator: TA1537, Metabolic Activation: RAT, LIVER, S-9, AROCLOR 1254 (10%), Method: PREINCUBATION inactive; negative
